Data from PMC9765458 (Science Translational Medicine, 2022).
Where two headings read alike, the source gives them in different places.

Assays:
[1] = test system: wild-type VSV-G-3CL^pro-L; assay: microbe, parasite or virus in culture; type: cell-based
[2] = test system: recombinant wt SARS-CoV-2-mCherry (rWA1); assay: microbe, parasite or virus in culture; type: cell-based

For `CC(C)(C)[C@H](NC(=O)C(F)(F)F)C(=O)N1C[C@H]2[C@@H]([C@H]1C(=O)N[C@H](C#N)C[C@@H]1CCNC1=O)C2(C)C` [Nirmatrelvir, nirmatrelvir], the replication inhibited [1] was 10^6 fold, the IC50 ([1]; Vesicular stomatitis virus, BHK-21, 24 h, read-out: half maximal inhibitor concentration (IC50) of virus replication) was roughly 185 nM and the IC50 ([2]; Severe acute respiratory syndrome coronavirus 2, read-out: IC50 48 hpi) was 8.68 nM. It also gave an IC50 ([2]; Severe acute respiratory syndrome coronavirus 2, read-out: IC50 72 hpi) of 8.51 nM.
